The structures appear in SMILES notation.

Our source for the melting point values is a melting point compilation (Tetko et al.; mined from patent text by program, amines drawn as free bases though some values may be those of a salt).

As to `COc1cc(Nc2nccc(-c3ccc([N+](=O)[O-])s3)n2)cc(OC)c1OC`, the melting point was in the range of 182 to 183 °C.

In turn, `CC(C)(Nc1ccccc1N)C(=O)O` gave a melting point of 130 to 132 °C.

Compound `CCOC(=O)c1sc(I)nc1C(F)(F)F` gave a melting point of 75 to 76 °C.

As for `COc1ccc2nc(C(=O)O)c(OCc3ccccc3)cc2c1`, the melting point fell in the range of 272 to 275 °C.

For the compound `O=c1c2cc3ccccc3cc2oc2cc(OCC3CS3)cc(O)c12` (stereo not drawn), the melting point was in the range of 189 to 190 °C.

`O=C1CCc2c1cnn2Cc1ccccc1` displayed a melting point of 92 to 93 °C.

Take `O=C(c1cccs1)c1cnn2c(-c3cccc(-c4ccc(CO)cc4)c3)ccnc12`: the melting point lay within 106 to 110 °C.

`COc1ccc(-c2[nH]nc3c2C(=O)c2c(NC(=O)C4CCCC4)cccc2-3)cc1` gave a melting point of 267 °C.

For `COC(=O)N1CCc2onc(OC)c2C1`, the melting point was in the range of 58 to 60 °C.

In the case of `O=C(Nc1ccccc1Nc1ccnc2c(NC(=O)c3c(Cl)cccc3Cl)cccc12)c1cccnc1`, the melting point fell in the range of 151 to 154 °C.

For `CC(C)(C)c1ccc(-c2ccc3nncn3n2)cc1`, the melting point lay in the range of 270 to 275 °C.

`N=C(NC(c1ccccc1)c1ccccc1)N1CCOCC1` showed a melting point of 122 to 124 °C.

`O=C(Nc1nc(C(F)(F)F)co1)C1c2ccccc2Oc2cc(F)ccc21` (racemic) registered a melting point of 221 °C.

As for `CC(C)(C)[C@H]1CC[C@H](CCC(=O)N2C(=O)OC[C@@H]2Cc2ccccc2)CC1`, the melting point fell in the range of 132 to 135 °C.

`CC(C)OCC1(C(F)(F)F)c2cc(C#N)ccc2Nc2ncc(C#N)cc21` (stereo not drawn) came in with a melting point of 226 to 227 °C.

The compound `NC(=O)c1c(Cl)c(-c2ccccc2)n2c1CN(S(=O)(=O)c1ccccc1F)CC2` returned a melting point of 239 to 240 °C.

For `COc1ccc(C(=O)C(=O)c2cccc(-c3ccc(S(C)(=O)=O)cc3)c2-c2ccccc2)cc1Cl`, the melting point is 163 to 166 °C.

In the case of `OCCCOc1ccc(-n2nc(-c3ccccc3)c3cccnc32)cc1`, the melting point lay in the range of 135 to 138 °C.

As for `COc1ccc(CCNc2ncnc3occc23)cc1`, the melting point fell in the range of 135 to 136 °C.

Consider `Cc1c(C)c2c(c(C)c1NC(=O)CC(C)(C)C)C(c1ccc(-c3ccccc3)cc1)CO2` (stereo not drawn), for which the melting point lay in the range of 218 to 219 °C.

Consider `CCCCc1c[nH]c(S(C)=O)c1[N+](=O)[O-]` (stereo not drawn), for which the melting point is 133 to 134 °C.

With `O=CC1=C(c2ccc3sccc3c2)N2CCN=C2S1`, the melting point was found to be 146 °C.

In turn, `CCN(Cc1cc(Br)ccc1NCc1ccccc1)c1ccc(C(N)=O)nn1` gave a melting point of 160 to 162 °C.

With `Cn1cc(-c2ccc(=O)n(Cc3cccc(-c4ncc(OCCO)cn4)c3)n2)cn1`, the melting point was in the range of 182 to 183 °C.

Compound `CCOC(=O)C1CCN(c2nc(-c3ccc(Cl)cc3)c(CCCOc3ccccc3OC)o2)CC1` displayed a melting point of 80 to 81 °C.

Take `Cc1cncc(-c2nc3cc(NC(=O)c4c(C(=O)N5CCC5)cnn4C)ccn3n2)c1`: the melting point fell in the range of 262 to 264 °C.

`CC(C)(C)OC(=O)NCCOc1ccc(OCC2(C)OCCO2)cc1` yielded a melting point of 80 to 82 °C.

In turn, `CC(=O)N(C)c1cccc(-c2ccnc3c(C(=O)c4ccccc4)cnn23)c1` had a melting point of 162 to 164 °C.

`CCCCn1c(=O)c2[nH]ncc2n(CCC(C)C)c1=O` gave a melting point of 77 to 79 °C.

For the compound `CCCCCCCCCCCCCCCCCCNC(=O)OCC(CNS(=O)(=O)CCCCl)NC(C)=O` (stereo not drawn), the melting point was in the range of 110 to 112 °C.

Compound `CC(=O)OCC1(c2ccccc2)CCC(=O)CC1` came in with a melting point of 74 to 79 °C.

`CC(C)Cn1c(CO)c(-c2cccc(F)c2)c2cc(OCc3ccccc3)ccc2c1=O` registered a melting point of 146 °C.

`O=c1c(-c2ccccc2)c(SCc2ccccc2)oc2cc(O)ccc12` displayed a melting point of 215 to 217 °C.

With `O=C1CCCCN1CCCC(=O)N1CCC(C2c3ncc(Br)cc3CCc3cc(Cl)cc(Br)c32)CC1` (single isomer, unassigned; (+)), the melting point lay within 101 to 102 °C.

`COCCCn1nnnc1-c1ccc(O)c(Br)c1O` displayed a melting point of 174 to 175 °C.

The compound `COc1nc(O)c(C(=O)O)nc1Cl` had a melting point of 170 to 173 °C.

`O=C(ONC1CCCCC1)c1n[nH]c2c(=O)[nH]c3cc(Cl)ccc3c(=O)c12` had a melting point of 220 °C.

Take `Oc1cnc(N2CCN(CCCCn3cc(Cl)cn3)CC2)nc1`: the melting point lay within 131 to 132 °C.

Take `CS(=O)(=O)SCCOC(=O)Cc1cccc(Nc2c(Cl)cccc2Cl)c1`: the melting point was in the range of 41 to 44 °C.

On to `CC(C)OC(=O)c1cc(-c2nn(C)c(C(F)(F)F)c2Cl)c(F)cc1Cl`, for which the melting point was found to be 69 °C.

The compound `CC(c1ccc(Cl)cc1)N1CCNC1=NC#N` (stereo not drawn) displayed a melting point of 133 °C.

Compound `Cc1ccc2c(-c3cnc4[nH]cc(C(=O)N[C@H](C)C(=O)N5CC(C#N)C5)c4n3)nn(C)c2c1` yielded a melting point of 260 to 275 °C.

As for `CCCc1ccc(CCCC(P(=O)(O)O)P(=O)(O)O)cc1`, the melting point fell in the range of 200 to 202 °C.

In turn, `C[C@@H]1OC(=O)[C@H]2C[C@H]3CCCC[C@@H]3[C@@H](O)[C@@H]12` showed a melting point of 195 to 196 °C.

With `CCOc1cc2nc(NC)nc(-c3cccc(-c4cnc5ccccc5c4)c3)c2cc1OCC`, the melting point is 157 to 159 °C.

In turn, `O=C1C(Cl)=C(N2CCN(S(=O)(=O)c3ccccc3C(F)(F)F)CC2)C(=O)c2ccccc21` returned a melting point of 122 to 124 °C.

Consider `CCOc1ccc(C(=O)Nc2ccccc2)cc1Nc1cccc(C(F)(F)F)c1`, for which the melting point lay within 184 to 185 °C.

For the compound `C1=C(c2csc3ccccc23)CCN(Cc2ccccc2)C1`, the melting point was 90 °C.

`COc1ccc(-n2nc(Cl)cc2-c2ccc(OCCNS(C)(=O)=O)cc2)cc1` registered a melting point of 117 to 119 °C.

`CCOC(=O)CCc1cc(Cl)ccc1C(=O)CCCNC(=O)CCCNC(C)=O` showed a melting point of 95 °C.

As for `CCOC(=O)[C@@H](O)[C@@H]1OC(=O)c2cc(OC)c(OCc3ccccc3)cc21`, the melting point was 138 to 140 °C.

As for `COc1cc([N+](=O)[O-])c2ncccc2c1OCc1ccc(Cl)cc1`, the melting point was in the range of 115 to 116 °C.

With `CC(C)(C)c1cc2c(c(C(C)(C)C)c1)O[Si](C)(C)Oc1c-2cc(C(C)(C)C)cc1C(C)(C)C`, the melting point lay in the range of 170 to 176 °C.

On to `CCCC[C@H](NC(=O)[C@H](CCC)NC(=O)OCc1ccccc1)C(=O)CSCc1ccco1`, for which the melting point is 95 to 96 °C.

Take `Cc1nnc(Cl)c(-c2c(F)cc(OCCCN(C)C)cc2F)c1-c1ccc(Cl)cc1`: the melting point fell in the range of 112 to 113 °C.

The compound `Cc1cc(C#N)cc(C(=O)NC(C)C)c1NC(=O)c1cc(Br)nn1-c1ccccc1Cl` registered a melting point of 145 to 149 °C.

Compound `Nc1cc(=O)n(Cc2ccc(F)cc2)[nH]1` returned a melting point of 148 °C.

Take `CCOC(=O)CN(C(=O)C(F)(F)F)C(Sc1ccccc1)P(=O)(O)ONC(C)C` (stereo not drawn): the melting point was 102 to 103 °C.

Compound `COc1ccc(Br)cc1C(=O)NCCc1ccc(CCC(=O)O)cc1` displayed a melting point of 120 to 121 °C.

Turning to `CCCOc1cc(Oc2ccc(C(F)(F)F)cn2)ccc1CCCOc1c(CC(=O)O)cccc1OC`, the melting point lay in the range of 78 to 79 °C.

On to `CN1CCOc2nc(Cl)c(Cl)nc21`, for which the melting point was 170 to 172 °C.

`C#Cc1ccc(C(=O)OC(C)(C)C)cc1` displayed a melting point of 71.5 to 72 °C.

`CCCCCCCCc1ccc(S(=O)(=O)Nc2nncs2)cc1` yielded a melting point of 123 to 124 °C.

`O=C(C=Cc1ccccc1O)c1ccccc1`: the melting point lay in the range of 148 to 149 °C.

Regarding `COc1cnc(CSc2nc3cc(OC(F)(F)F)ccc3[nH]2)c(C)c1OC`, the melting point was 94 to 97 °C.

As for `Cn1cc(Br)nc(Nc2ccc(C(=O)N3CCOCC3)cc2)c1=O`, the melting point was 276 to 277 °C.

Compound `CS(=O)(=O)c1ccc(-c2cnn(CC(O)c3ccccc3)c(=O)c2-c2ccc(F)cc2)cc1` (stereo not drawn) came in with a melting point of 205 to 207 °C.

In turn, `O=C(O)COc1ccc(C(=O)c2ccc(Cl)cc2)c(Cl)c1Cl` registered a melting point of 196 to 198 °C.

Turning to `CC(C)Cn1c(=O)n(C)c(=O)c2c(-c3cccc(-c4nnn[nH]4)c3)n(Cc3cccc4ccccc34)nc21`, the melting point was in the range of 251 to 254 °C.

In turn, `COc1ccc(-c2ccc3cc(C4SC(=O)NC4=O)ccc3c2)cc1C12CC3CC(CC(C3)C1)C2` (stereo not drawn) returned a melting point of 205 to 207 °C.

Compound `COc1cc(C#N)ccc1C=O` gave a melting point of 112 to 114 °C.

For the compound `Cc1ccc(-c2nnc(N3CCC(OC(=O)Oc4ccccc4)CC3)nc2-c2ccc(C)cc2)cc1`, the melting point was 142 to 143 °C.

`CC(=O)Oc1c(C(C)(C)C)cc(C=[N+]([O-])CC(C)C)cc1C(C)(C)C`: the melting point lay within 177 to 180 °C.

In the case of `CCOC(=O)c1cnoc1-c1cccc(OC)c1`, the melting point lay within 85 to 87 °C.

The compound `NCCCP(=O)(O)C(F)F` came in with a melting point of 261 °C.

In turn, `CCOC(=O)c1cn(CC)c2cc(N3CCNCC3)c(F)cc2c1=O` returned a melting point of 178 to 180 °C.

In turn, `Cc1cccc(NC(=O)NCC(=O)N(CC(=O)NCc2ccccc2)c2ccccc2)c1` came in with a melting point of 204 °C.

`CCOC(=O)c1cc(C#N)c(C=O)nc1NC` registered a melting point of 137 to 139 °C.

For `Cc1ccc(C2OC(=O)NC2=O)s1` (stereo not drawn), the melting point is 108 to 109 °C.

`S=C1NCCSc2ccsc21` showed a melting point of 138 to 139 °C.

In the case of `C(=C/c1ccccc1)/COCCC1CCN(Cc2ccccc2)CC1`, the melting point lay within 68 to 70 °C.

For the compound `Cc1ccc(NC(=O)c2snnc2C2CC2)cc1Cl`, the melting point was 150 to 153 °C.

In turn, `CC(C)(C)OC(=O)C1CCN(C(=O)C2CN(c3ccc(C(=N)N)cc3)C(=O)O2)CC1` (stereo not drawn) displayed a melting point of 160 °C.

Compound `CC(=O)OCC(=O)C1(OC(C)=O)C(C)CC2C3CC(C)C4=CC(=O)C=CC4(C)C3C(O)CC21C` (stereo not drawn) returned a melting point of 124 to 126 °C.

In turn, `O=S(=O)(c1cccc(C(F)(F)F)c1)c1cc(Br)nc(N2CCNCC2)c1` came in with a melting point of 160 to 162 °C.

As for `NC(=O)CN1CC[C@@H](O)C1=O`, the melting point lay within 195 to 196 °C.

`Nc1ncccc1OCc1c(F)cccc1F` gave a melting point of 124 to 128 °C.

Take `CC1CC(=O)NN=C1c1ccc(Cl)c([N+](=O)[O-])c1` (stereo not drawn): the melting point fell in the range of 186 to 188 °C.

By melting point is commonly meant the temperature of the solid-liquid transition.
